From ChEMBL document CHEMBL1140892, “Synthesis and evaluation of rifabutin analogs against Mycobacterium avium and H(37)Rv, MDR and NRP Mycobacterium tuberculosis” (Bioorg Med Chem, 2009)
Converted amounts (≈) assume the structure as drawn. The source made the active and inactive calls. The calls are words filed in the database; no cut-off is given here.

Tests used:
[1] = system: Mycobacterium tuberculosis; experiment: Antimycobacterial activity against isoniazid, rifampicin and streptomycin-resistant Mycobacterium tuberculosis after 7 days by resazurin method; assay type: functional; details: 168 h
[2] = system: Mycobacterium tuberculosis; experiment: Antimycobacterial activity against isoniazid, rifampicin and ethambutol-resistant Mycobacterium tuberculosis after 7 days by resazurin method; assay type: functional; details: 168 h
[3] = system: Mycobacterium tuberculosis; experiment: Antimycobacterial activity against multidrug-resistant Mycobacterium tuberculosis infected in BALB/c mouse assessed as reduction of bacterial load in lungs at 5 mg/kg/day, intragastrically after 1 month relative to control; assay type: functional, organism-based

Structure (SMILES): CO[C@H]1/C=C/O[C@@]2(C)Oc3c(C)c(O)c4c(c3C2=O)C2=NC3(CCN(CC(C)C)CC3)NC2=C(NC(=O)/C(C)=C\C=C\[C@H](C)[C@H](O)[C@@H](C)[C@@H](O)[C@@H](C)[C@H](O)[C@@H]1C)C4=O
- MIC [1]: > 10 µg/mL
- MIC [2]: > 10 µg/mL

Structure (SMILES): CO[C@H]1/C=C/O[C@@]2(C)Oc3c(C)c(O)c4c(c3C2=O)C2=NC3(CC[N+]([O-])(CC(C)C)CC3)NC2=C(NC(=O)/C(C)=C\C=C\[C@H](C)[C@H](O)[C@@H](C)[C@@H](O)[C@@H](C)[C@H](OC(C)=O)[C@@H]1C)C4=O (stereo partly drawn)
- MIC [1]: > 10 µg/mL
- MIC [2]: > 10 µg/mL

Structure (SMILES): C=CCCCCCCCCC(=O)N1C2=C3NC(=O)/C(C)=C\C=C\[C@H](C)[C@H](O)[C@@H](C)[C@@H](O)[C@@H](C)[C@H](OC(C)=O)[C@H](C)[C@@H](OC)/C=C/O[C@@]4(C)Oc5c(C)c(O)c(c(c5C4=O)C2=NC12CCN(CC(C)C)CC2)C3=O
- Activity [3]: Active
- MIC [1]: 6 µg/mL (≈ 5.92 µM)
- MIC [2]: 6 µg/mL (≈ 5.92 µM)

Structure (SMILES): CO[C@H]1/C=C/O[C@@]2(C)Oc3c(C)c(O)c4c(c3[C@H]2O)C2=NC3(CC[N+]([O-])(CC(C)C)CC3)NC2=C(NC(=O)/C(C)=C\C=C\[C@H](C)[C@H](O)[C@@H](C)[C@@H](O)[C@@H](C)[C@H](OC(C)=O)[C@@H]1C)C4=O (stereo partly drawn)
- MIC [1]: > 10 µg/mL
- MIC [2]: > 10 µg/mL

Structure (SMILES): CO[C@H]1/C=C/O[C@@]2(C)Oc3c(C)c(O)c4c(c3C2=O)C2=NC3(CCN(CC(C)C)CC3)NC2=C(NC(=O)/C(C)=C\C=C\[C@H](C)[C@H](O)[C@@H](C)[C@@H](O)[C@@H](C)[C@H](OC(C)=O)[C@@H]1C)C4=O [RIFABUTIN]
- Activity [3]: Active
- MIC [1]: > 10 µg/mL
- MIC [2]: > 10 µg/mL

Structure (SMILES): CCCCCCCCCCCCCCCC(=O)N1C2=C3NC(=O)/C(C)=C\C=C\[C@H](C)[C@H](O)[C@@H](C)[C@@H](O)[C@@H](C)[C@H](OC(C)=O)[C@H](C)[C@@H](OC)/C=C/O[C@@]4(C)Oc5c(C)c(O)c(c(c5C4=O)C2=NC12CCN(CC(C)C)CC2)C3=O
- MIC [1]: > 10 µg/mL
- MIC [2]: > 10 µg/mL

Structure (SMILES): CO[C@H]1/C=C/O[C@@]2(C)Oc3c(C)c(O)c4c(c3C2=O)C2=NC3(CC[N+]([O-])(CC(C)C)CC3)NC2=C(NC(=O)/C(C)=C\C=C\[C@H](C)[C@H](O)[C@@H](C)[C@@H](O)[C@@H](C)[C@H](O)[C@@H]1C)C4=O (stereo partly drawn)
- MIC [1]: > 10 µg/mL
- MIC [2]: > 10 µg/mL

Structure (SMILES): CO[C@H]1/C=C/O[C@@]2(C)Oc3c(C)c(O)c4c(c3[C@H]2O)C2=NC3(CCN(CC(C)C)CC3)NC2=C(NC(=O)/C(C)=C\C=C\[C@H](C)[C@H](O)[C@@H](C)[C@@H](O)[C@@H](C)[C@H](O)[C@@H]1C)C4=O
- MIC [1]: > 10 µg/mL
- MIC [2]: > 10 µg/mL

Structure (SMILES): CO[C@H]1/C=C/O[C@@]2(C)Oc3c(C)c(O)c4c(c3[C@H]2O)C2=NC3(CCN(CC(C)C)CC3)N(C(C)=O)C2=C(NC(=O)/C(C)=C\C=C\[C@H](C)[C@H](O)[C@@H](C)[C@@H](O)[C@@H](C)[C@H](OC(C)=O)[C@@H]1C)C4=O
- MIC [1]: 8 µg/mL (≈ 8.98 µM)
- MIC [2]: 8 µg/mL (≈ 8.98 µM)

Structure (SMILES): CO[C@H]1/C=C/O[C@@]2(C)Oc3c(C)c(O)c4c(c3C2=O)C2=NC3(CCN(CC(C)C)CC3)N(C(C)=O)C2=C(NC(=O)/C(C)=C\C=C\[C@H](C)[C@H](O)[C@@H](C)[C@@H](O)[C@@H](C)[C@H](OC(C)=O)[C@@H]1C)C4=O
- Activity [3]: Active
- MIC [1]: > 10 µg/mL
- MIC [2]: > 10 µg/mL
